Source: patent US20150105252A1, “SUBSTITUTED PYRAZOLES AS HERBICIDES” (E I DU PONT DE NEMOURS AND COMPANY, priority 2013, published 2015)

Columns and labels:
chickweed [1] = assay: Test D preemergence; assay type: in vivo, Stellaria media; details: Preemergence, scale 0 to 100
Outline: (§1)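 Preemergence: seeds sown in silt loam and sprayed with compounds in a non-phytotoxic solvent with surfactant; postemergence: plants at 2 to 18 cm (1- to 4-leaf stage) in peat-based medium treated likewise. After 14 to 21 days in controlled growth conditions, injury rated visually versus controls on 0 (no effect) to 100 (complete control) scale.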

galium = assay: Test D preemergence; assay type: in vivo, Galium aparine; details: Preemergence, scale 0 to 100
Outline: as §1

field violet = assay: Test D preemergence; assay type: in vivo, Viola arvensis; details: Preemergence, scale 0 to 100
Outline: as §1

foxtail, green = assay: Test D preemergence; assay type: in vivo, Setaria viridis; details: Preemergence, scale 0 to 100
Outline: as §1

ryegrass, Italian = assay: Test D preemergence; assay type: in vivo, Lolium multiflorum; details: Preemergence, scale 0 to 100
Outline: as §1

kochia = assay: Test D preemergence; assay type: in vivo, Kochia scoparia; details: Preemergence, scale 0 to 100
Outline: as §1

pigweed = assay: Test D preemergence; assay type: in vivo, Amaranthus retroflexus; details: Preemergence, scale 0 to 100
Outline: as §1

barley, spring = assay: Test D preemergence; assay type: in vivo, Hordeum vulgare; details: Preemergence, scale 0 to 100
Outline: as §1

barley, winter = assay: Test D preemergence; assay type: in vivo, Hordeum vulgare; details: Preemergence, scale 0 to 100
Outline: as §1

buckwheat, wild [2] = assay: Test D preemergence; assay type: in vivo, Polygonum convolvulus; details: Preemergence, scale 0 to 100
Outline: as §1

mustard, wild = assay: Test D preemergence; assay type: in vivo, Sinapis arvensis; details: Preemergence, scale 0 to 100
Outline: as §1

radish, wild = assay: Test D preemergence; assay type: in vivo, Raphanus raphanistrum; details: Preemergence, scale 0 to 100
Outline: as §1

windgrass = assay: Test D preemergence; assay type: in vivo, Apera spica-venti; details: Preemergence, scale 0 to 100
Outline: as §1

bluegrass = assay: Test D postemergence; assay type: in vivo, Poa annua; details: scale 0 to 100
Outline: as §1

chickweed [3] = assay: Test D postemergence; assay type: in vivo, Stellaria media; details: scale 0 to 100
Outline: as §1

field poppy = assay: Test D postemergence; assay type: in vivo, Papaver rhoeas; details: scale 0 to 100
Outline: as §1

oilseed rape = assay: Test D postemergence; assay type: in vivo, Brassica napus; details: scale 0 to 100
Outline: as §1

wheat, spring = assay: Test D postemergence; assay type: in vivo, Triticum aestivum; details: scale 0 to 100
Outline: as §1

wheat, winter = assay: Test D postemergence; assay type: in vivo, Triticum aestivum; details: scale 0 to 100
Outline: as §1

buckwheat, wild [4] = assay: Test D postemergence; assay type: in vivo, Polygonum convolvulus; details: scale 0 to 100
Outline: as §1

CCCc1cc(C(=O)NC(C)C)nn1Cc1cc(C(F)(F)F)nn1C [Compound 201]
Plant response rating, Chickweed (chickweed [1]; 31 g ai/ha): 80
Plant response rating, Chickweed (chickweed [1]; 62 g ai/ha): 100
Plant response rating, Chickweed (chickweed [1]; 125 g ai/ha): 100
Plant response rating, Chickweed (chickweed [1]; 250 g ai/ha): 100
Plant response rating, Galium (galium; 62 g ai/ha): 50
Plant response rating, Galium (galium; 125 g ai/ha): 100
Plant response rating, Galium (galium; 250 g ai/ha): 100
Plant response rating, Field Violet (field violet; 62 g ai/ha): 100
Plant response rating, Field Violet (field violet; 125 g ai/ha): 100
Plant response rating, Field Violet (field violet; 250 g ai/ha): 100
Plant response rating, Foxtail, Green (foxtail, green; 62 g ai/ha): 100
Plant response rating, Foxtail, Green (foxtail, green; 125 g ai/ha): 100
Plant response rating, Foxtail, Green (foxtail, green; 250 g ai/ha): 100
Plant response rating, Ryegrass, Italian (ryegrass, Italian; 62 g ai/ha): 65
Plant response rating, Ryegrass, Italian (ryegrass, Italian; 125 g ai/ha): 85
Plant response rating, Ryegrass, Italian (ryegrass, Italian; 250 g ai/ha): 100
Plant response rating, Kochia (kochia; 62 g ai/ha): 100
Plant response rating, Kochia (kochia; 125 g ai/ha): 100
Plant response rating, Kochia (kochia; 250 g ai/ha): 100
Plant response rating, Pigweed (pigweed; 62 g ai/ha): 80
Plant response rating, Pigweed (pigweed; 125 g ai/ha): 100
Plant response rating, Pigweed (pigweed; 250 g ai/ha): 100
Plant response rating, Barley, Spring (barley, spring; 31 g ai/ha): 0
Plant response rating, Barley, Spring (barley, spring; 62 g ai/ha): 20
Plant response rating, Barley, Spring (barley, spring; 125 g ai/ha): 65
Plant response rating, Barley, Spring (barley, spring; 250 g ai/ha): 75
Plant response rating, Barley, Winter (barley, winter; 31 g ai/ha): 25
Plant response rating, Barley, Winter (barley, winter; 62 g ai/ha): 35
Plant response rating, Barley, Winter (barley, winter; 125 g ai/ha): 45
Plant response rating, Barley, Winter (barley, winter; 250 g ai/ha): 100
Plant response rating, Buckwheat, Wild (buckwheat, wild [2]; 31 g ai/ha): 15
Plant response rating, Buckwheat, Wild (buckwheat, wild [2]; 62 g ai/ha): 100
Plant response rating, Buckwheat, Wild (buckwheat, wild [2]; 250 g ai/ha): 100
Plant response rating, Mustard, Wild (mustard, wild; 62 g ai/ha): 100
Plant response rating, Mustard, Wild (mustard, wild; 125 g ai/ha): 100
Plant response rating, Mustard, Wild (mustard, wild; 250 g ai/ha): 100
Plant response rating, Radish, Wild (radish, wild; 62 g ai/ha): 100
Plant response rating, Radish, Wild (radish, wild; 125 g ai/ha): 100
Plant response rating, Radish, Wild (radish, wild; 250 g ai/ha): 100
Plant response rating, Windgrass (windgrass; 62 g ai/ha): 100
Plant response rating, Windgrass (windgrass; 125 g ai/ha): 100
Plant response rating, Windgrass (windgrass; 250 g ai/ha): 100
Bluegrass plant response rating (bluegrass; Postemergence, 31 g ai/ha): 20
Bluegrass plant response rating (bluegrass; Postemergence, 125 g ai/ha): 35
Bluegrass plant response rating (bluegrass; Postemergence, 250 g ai/ha): 40
Bluegrass plant response rating (bluegrass; postemergence, 62 g ai/ha): 20
Chickweed plant response rating (chickweed [3]; Postemergence, 31 g ai/ha): 55
Chickweed plant response rating (chickweed [3]; Postemergence, 125 g ai/ha): 70
Chickweed plant response rating (chickweed [3]; Postemergence, 250 g ai/ha): 75
Chickweed plant response rating (chickweed [3]; postemergence, 62 g ai/ha): 55
Field Poppy plant response rating (field poppy; Postemergence, 31 g ai/ha): 55
Field Poppy plant response rating (field poppy; Postemergence, 125 g ai/ha): 60
Field Poppy plant response rating (field poppy; Postemergence, 250 g ai/ha): 65
Field Poppy plant response rating (field poppy; postemergence, 62 g ai/ha): 55
Oilseed Rape plant response rating (oilseed rape; Postemergence, 31 g ai/ha): 40
Oilseed Rape plant response rating (oilseed rape; Postemergence, 125 g ai/ha): 50
Oilseed Rape plant response rating (oilseed rape; Postemergence, 250 g ai/ha): 70
Oilseed Rape plant response rating (oilseed rape; postemergence, 62 g ai/ha): 40
Wheat, Spring plant response rating (wheat, spring; Postemergence, 31 g ai/ha): 15
Wheat, Spring plant response rating (wheat, spring; Postemergence, 125 g ai/ha): 15
Wheat, Spring plant response rating (wheat, spring; Postemergence, 250 g ai/ha): 30
Wheat, Spring plant response rating (wheat, spring; postemergence, 62 g ai/ha): 15
Wheat, Winter plant response rating (wheat, winter; Postemergence, 31 g ai/ha): 20
Wheat, Winter plant response rating (wheat, winter; Postemergence, 125 g ai/ha): 25
Wheat, Winter plant response rating (wheat, winter; Postemergence, 250 g ai/ha): 40
Wheat, Winter plant response rating (wheat, winter; postemergence, 62 g ai/ha): 20
Buckwheat, Wild plant response rating (buckwheat, wild [4]; Postemergence, 31 g ai/ha): 50
Buckwheat, Wild plant response rating (buckwheat, wild [4]; Postemergence, 125 g ai/ha): 65
Buckwheat, Wild plant response rating (buckwheat, wild [4]; Postemergence, 250 g ai/ha): 70
Buckwheat, Wild plant response rating (buckwheat, wild [4]; postemergence, 62 g ai/ha): 50

CCCc1cc(C(=O)NC2CC2)nn1Cc1cc(C(F)(F)F)nn1C [Compound 202]
Plant response rating, Chickweed (chickweed [1]; 31 g ai/ha): 100
Plant response rating, Chickweed (chickweed [1]; 62 g ai/ha): 100
Plant response rating, Chickweed (chickweed [1]; 125 g ai/ha): 100
Plant response rating, Chickweed (chickweed [1]; 250 g ai/ha): 100
Plant response rating, Galium (galium; 62 g ai/ha): 35
Plant response rating, Galium (galium; 125 g ai/ha): 70
Plant response rating, Galium (galium; 250 g ai/ha): 100
Plant response rating, Field Violet (field violet; 62 g ai/ha): 25
Plant response rating, Field Violet (field violet; 125 g ai/ha): 100
Plant response rating, Field Violet (field violet; 250 g ai/ha): 100
Plant response rating, Foxtail, Green (foxtail, green; 62 g ai/ha): 35
Plant response rating, Foxtail, Green (foxtail, green; 125 g ai/ha): 80
Plant response rating, Foxtail, Green (foxtail, green; 250 g ai/ha): 100
Plant response rating, Ryegrass, Italian (ryegrass, Italian; 62 g ai/ha): 0
Plant response rating, Ryegrass, Italian (ryegrass, Italian; 125 g ai/ha): 40
Plant response rating, Ryegrass, Italian (ryegrass, Italian; 250 g ai/ha): 80
Plant response rating, Kochia (kochia; 62 g ai/ha): 100
Plant response rating, Kochia (kochia; 125 g ai/ha): 100
Plant response rating, Kochia (kochia; 250 g ai/ha): 100
Plant response rating, Pigweed (pigweed; 62 g ai/ha): 100
Plant response rating, Pigweed (pigweed; 125 g ai/ha): 100
Plant response rating, Pigweed (pigweed; 250 g ai/ha): 100
Plant response rating, Barley, Spring (barley, spring; 31 g ai/ha): 0
Plant response rating, Barley, Spring (barley, spring; 62 g ai/ha): 0
Plant response rating, Barley, Spring (barley, spring; 125 g ai/ha): 55
Plant response rating, Barley, Spring (barley, spring; 250 g ai/ha): 65
Plant response rating, Barley, Winter (barley, winter; 31 g ai/ha): 0
Plant response rating, Barley, Winter (barley, winter; 62 g ai/ha): 0
Plant response rating, Barley, Winter (barley, winter; 125 g ai/ha): 25
Plant response rating, Barley, Winter (barley, winter; 250 g ai/ha): 45
Plant response rating, Buckwheat, Wild (buckwheat, wild [2]; 31 g ai/ha): 35
Plant response rating, Buckwheat, Wild (buckwheat, wild [2]; 62 g ai/ha): 60
Plant response rating, Buckwheat, Wild (buckwheat, wild [2]; 125 g ai/ha): 100
Plant response rating, Buckwheat, Wild (buckwheat, wild [2]; 250 g ai/ha): 100
Plant response rating, Mustard, Wild (mustard, wild; 62 g ai/ha): 100
Plant response rating, Mustard, Wild (mustard, wild; 125 g ai/ha): 100
Plant response rating, Mustard, Wild (mustard, wild; 250 g ai/ha): 100
Plant response rating, Radish, Wild (radish, wild; 62 g ai/ha): 100
Plant response rating, Radish, Wild (radish, wild; 125 g ai/ha): 100
Plant response rating, Radish, Wild (radish, wild; 250 g ai/ha): 100
Plant response rating, Windgrass (windgrass; 62 g ai/ha): 55
Plant response rating, Windgrass (windgrass; 125 g ai/ha): 75
Plant response rating, Windgrass (windgrass; 250 g ai/ha): 100
Bluegrass plant response rating (bluegrass; Postemergence, 31 g ai/ha): 20
Bluegrass plant response rating (bluegrass; Postemergence, 125 g ai/ha): 25
Bluegrass plant response rating (bluegrass; Postemergence, 250 g ai/ha): 35
Bluegrass plant response rating (bluegrass; postemergence, 62 g ai/ha): 20
Chickweed plant response rating (chickweed [3]; Postemergence, 31 g ai/ha): 55
Chickweed plant response rating (chickweed [3]; Postemergence, 125 g ai/ha): 45
Chickweed plant response rating (chickweed [3]; Postemergence, 250 g ai/ha): 70
Chickweed plant response rating (chickweed [3]; postemergence, 62 g ai/ha): 55
Field Poppy plant response rating (field poppy; Postemergence, 31 g ai/ha): 50
Field Poppy plant response rating (field poppy; Postemergence, 125 g ai/ha): 50
Field Poppy plant response rating (field poppy; Postemergence, 250 g ai/ha): 75
Field Poppy plant response rating (field poppy; postemergence, 62 g ai/ha): 50
Oilseed Rape plant response rating (oilseed rape; Postemergence, 31 g ai/ha): 40
Oilseed Rape plant response rating (oilseed rape; Postemergence, 125 g ai/ha): 50
Oilseed Rape plant response rating (oilseed rape; Postemergence, 250 g ai/ha): 60
Oilseed Rape plant response rating (oilseed rape; postemergence, 62 g ai/ha): 40
Wheat, Spring plant response rating (wheat, spring; Postemergence, 31 g ai/ha): 10
Wheat, Spring plant response rating (wheat, spring; Postemergence, 125 g ai/ha): 10
Wheat, Spring plant response rating (wheat, spring; Postemergence, 250 g ai/ha): 20
Wheat, Spring plant response rating (wheat, spring; postemergence, 62 g ai/ha): 10
Wheat, Winter plant response rating (wheat, winter; Postemergence, 31 g ai/ha): 15
Wheat, Winter plant response rating (wheat, winter; Postemergence, 125 g ai/ha): 20
Wheat, Winter plant response rating (wheat, winter; Postemergence, 250 g ai/ha): 25
Wheat, Winter plant response rating (wheat, winter; postemergence, 62 g ai/ha): 15
Buckwheat, Wild plant response rating (buckwheat, wild [4]; Postemergence, 31 g ai/ha): 40
Buckwheat, Wild plant response rating (buckwheat, wild [4]; Postemergence, 125 g ai/ha): 70
Buckwheat, Wild plant response rating (buckwheat, wild [4]; Postemergence, 250 g ai/ha): 90
Buckwheat, Wild plant response rating (buckwheat, wild [4]; postemergence, 62 g ai/ha): 40
